Columns and labels:
heart rate = assay: Antiarrhythmic effect (chloroform, mice, ip); format: in vivo; details: positive = 1-200 per minute heart rate
Method: Mice, age 5 weeks and weighing approximately 25 g, 6 of which consisted one group, were given a test compound which was dissolved in a 0.01 N-0.1 N hydrochloric acid solution (ip). Ten (10) minutes thereafter the mice were put into a sealed container which was filled with chloroform, their chests were incised promptly after confirming the respiratory arrest, and the heart rate was counted. Those with a 1-200 per minute heart rate were judged as positive in their antiarrhythmic effect.

Edema = assay: Antiinflammatory effect (carragenin-induced edema of rat foot, oral); format: in vivo, Wister rats; details: 30 mg/kg, carragenin 60 min after dosing, foot volume 3 hours thereafter
Method: Wister rats (age 6 weeks), 5 of which consisted one group, were fasted for 18 hours and orally given a test compound which was dissolved or suspended in a 0.5% sodium carboxymethylcellulose (CMC-Na). Sixty (60) minutes after administration of the tested compound each rat was subcutaneously given 0.1 ml of 1% carragenin physiological saline at its right plantar, and 3 hours thereafter the volume of its foot (A) was measured. The rate of edematization was determined by the formula [(A-B)/B]×100, in which (A) is the thus-obtained volume of animals foot and (B) denots the corresponding volume before administration of the compound (B).
The rate of edematization of controls which were subcutaneously given 0.1 ml of 1% carragenin physiological saline at their right plantars was also determined in the same manner. The rate of edema inhibition was determined on each of the tested compounds according to the following equation: [formula]
The results are shown in Table 1, in which the compound numbers correspond those of Examples appearing hereinafter in this specification.

[1] = tested on: right and left atrium muscles; assay: Cardiotonic effect (positive inotropic effect on isolated guinea pig atrium muscles); set-up: species or system Hartley male guinea pigs; details: Cavia porcellus, 10^-5 g/ml, 32° C, maximum change of contractive force, read-out: Positive Inotropic Effect (% per the value obtained on controls)
Method: Hearts of Hartley male guinea pigs, weighing 500-800 g, were taken out and their atrium muscles were enucleated in Krebs - hydrogencarbonate solution, to serve the same as samples for the test. The both ends of right and left atrium muscles with a spontaneous beat were fixed by means of Serres fines, and suspended, with their upper and lower portions being fixed, in a bath containing 20 ml of Krebs - hydrogencarbonate solution which was aerated by 95% O2 +5% CO2 at 32° C. Then contractive forces of the spontaneous beat were isometrically measured. After the samples were stabilized, the test compound dissolved in 1 N hydrochloric acid solution and diluted by physiological saline to a concentration of 10^-5 g/ml was charged into the bath. Maximum changes (%) of the contractive force after charging the test compound per the value obtained immediately before the charge were determined. The values obtained, which respresent a positive inotropic effect, were made a standard for the cardiotonic effect.

Row | Structure (SMILES) | Animals exhibited positive antiarrhythmic/Animals tested (heart rate; 12.5 mg/kg) | Animals exhibited positive antiarrhythmic/Animals tested (heart rate; 25.0 mg/kg) | Edema Inhibition Rate (%) (Edema) | activation at 10 µg/mL [1]
1 | CC(=O)Nc1cc2cccnc2c(N2CCNCC2)n1 [Compound No. 1, 6-acetamido-8-(1-piperazinyl)-1,7-naphthyridine] | 5/6 | 4/6 | 64.8% | 
2 | CC(=O)Nc1cc2cccnc2c(N2CCN(C=O)CC2)n1 [compound 2] |  |  | 35.0% | 35.8%
3 | CC(=O)Nc1cc2cccnc2c(N2CCN(C(C)=O)CC2)n1 [compound 3] |  |  |  | 35.6%
4 | CC(=O)Nc1cc2cccnc2c(N2CCN(C(=O)c3ccccc3)CC2)n1 [compound 4] | 2/6 | 4/6 |  | 
5 | CC(=O)Nc1cc2cccnc2c(N2CCN(C(=O)c3ccc([N+](=O)[O-])cc3)CC2)n1 [compound 8, 6-acetamido-8-[4-(p-nitrobenzoyl)-1-piperazinyl]-1,7-naphthyridine] |  |  | 28.6% | 
6 | COc1ccc(C(=O)N2CCN(c3nc(NC(C)=O)cc4cccnc34)CC2)cc1 [compound 9] |  |  | 30.4% | 
7 | COc1ccc(C(=O)N2CCN(c3nc(NC(C)=O)cc4cccnc34)CC2)cc1OC [compound 10] |  |  |  | 16.7%
8 | COc1cc(C(=O)N2CCN(c3nc(NC(C)=O)cc4cccnc34)CC2)cc(OC)c1OC [compound 11] | 1/6 | 6/6 |  | 
9 | CC(=O)Nc1cc2cccnc2c(N2CCN(c3cccc(Cl)c3)CC2)n1 [compound 15] | 4/6 | 4/6 |  | 
10 | CC(=O)Nc1cc2cccnc2c(N2CCN(c3ccc(F)cc3)CC2)n1 [compound 17] | 3/6 | 5/6 |  | 
11 | CC(=O)Nc1cc2cccnc2c(N2CCN(Cc3ccccc3)CC2)n1 [compound 22] |  |  | 57.1% | 16.7%

Source: patent US4866176A, “8-Piperazinyl-1,7-naphthyridine derivative having pharmaceutical activity” (SS Pharmaceutical Co., Ltd., priority 1986, dated 1989)
